Measurements as given in patent publication US8314112B2 (Novartis AG, priority 2008, dated 2012).
pIC50: −log10 of the molar value.

The molecules below were run against T1, human ALK5 (kinase domain, ALK5 T204D) (Homo sapiens, UniProt P36897, T204D) (assay: ALK5 kinase assay ([33P] phosphate incorporation into casein)). Settings: casein substrate, 1 μM unlabelled ATP.
T1 construct: The kinase domain of human ALK5 (amino acids 200-503); made in house; host or cells: insect cells (baculovirus)
T1 sequence (P36897 200-503 T204D): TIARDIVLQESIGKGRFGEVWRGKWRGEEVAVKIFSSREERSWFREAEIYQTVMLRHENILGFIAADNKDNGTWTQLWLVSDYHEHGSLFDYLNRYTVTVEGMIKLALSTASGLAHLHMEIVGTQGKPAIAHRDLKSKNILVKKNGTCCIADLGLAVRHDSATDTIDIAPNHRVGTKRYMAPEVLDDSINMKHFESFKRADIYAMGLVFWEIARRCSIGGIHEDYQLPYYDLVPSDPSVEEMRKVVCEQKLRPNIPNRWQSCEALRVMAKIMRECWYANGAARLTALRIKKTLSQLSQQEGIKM
Type: biochemical
Outline: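 His-tagged human ALK5 T204D kinase domain (aa 200-503, constitutively active, baculovirus/insect-cell expressed), 50 ng/well, preincubated 10 min with compound and dephosphorylated casein (200 μg/well) in Tris pH 7.4/MgCl2/MnCl2. Reaction started with 1 μM ATP plus [33P]ATP, 50 min at room temperature, EDTA-stopped; casein-bound 33P counted by scintillation after filter capture.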

Going from `Cc1cccc(-c2nc(-c3cncc(-c4ccc(CN5CC[C@H](N(C)C)C5)cc4)c3)c3cc[nH]c3n2)n1` [Example 100, Dimethyl-[(S)-1-(4-{5-[2-(6-methyl-pyridin-2-yl)-7H-pyrrolo[2,3-d]pyrimidin-4-yl]-pyridin-3-yl}-benzyl)-pyrrolidin-3-yl]-amine] to `Cc1cccc(-c2cc(-c3cncc(-c4ccc(CN5CC[C@@H](N(C)C)C5)cc4)c3)c3cc[nH]c3n2)n1` [Example 108, Dimethyl-[(R)-1-(4-{5-[6-(6-methyl-pyridin-2-yl)-1H-pyrrolo[2,3-b]pyridin-4-yl]-pyridin-3-yl}-benzyl)-pyrrolidin-3-yl]-amine], the pIC50 rises from 8.10 to 8.34 (0.24 log units). The second is the more potent here.

`Cc1cccc(-c2nc(-c3cncc(C4=CCNCC4)c3)c3cc[nH]c3n2)n1` [Example 101, 5-[2-(6-Methyl-pyridin-2-yl)-7H-pyrrolo[2,3-d]pyrimidin-4-yl]-1′,2′,3′,6′-tetrahydro-[3,4′]bipyridinyl] and `Cc1cccc(-c2nc(-c3cncc(C4=CCN(C)CC4)c3)c3cc[nH]c3n2)n1` [Example 116, 1′-Methyl-5-[2-(6-methyl-pyridin-2-yl)-7H-pyrrolo[2,3-d]pyrimidin-4-yl]-1′,2′,3′,6′-tetrahydro-[3,4′]bipyridinyl] are within 0.2 log units of each other in pIC50: 6.36 for the first, 6.27 for the second.

Compared with `Cc1cccc(-c2nc(-c3cncc(-c4cccc(C5CCCN5)c4)c3)c3cc[nH]c3n2)n1` (centres unmarked) [Example 102, 2-(6-Methyl-pyridin-2-yl)-4-[5-(3-pyrrolidin-2-yl-phenyl)-pyridin-3-yl]-7H-pyrrolo[2,3-d]pyrimidine], `Cc1cccc(-c2cc(-c3cncc(-c4cccc(C5CCCN5)c4)c3)c3cc[nH]c3n2)n1` (centres unmarked) [Example 120, 6-(6-Methyl-pyridin-2-yl)-4-[5-(3-pyrrolidin-2-yl-phenyl)-pyridin-3-yl]-1H-pyrrolo[2,3-b]pyridine] is 0.93 log units higher in pIC50: 7.51 for the first, 8.44 for the second. The second is the more potent here.

First: CC(=O)N1CC=C(c2cncc(-c3nc(-c4cccc(C)n4)nc4[nH]ccc34)c2)CC1 [Example 103, 1-{5-[2-(6-Methyl-pyridin-2-yl)-7H-pyrrolo[2,3-d]pyrimidin-4-yl]-3′,6′-dihydro-2′H-[3,4′]bipyridinyl-1′-yl}-ethanone]
Second: CC(=O)N1CC=C(c2cncc(-c3cc(-c4cccc(C)n4)nc4[nH]ccc34)c2)CC1 [Example 121, 1-{5-[6-(6-Methyl-pyridin-2-yl)-1H-pyrrolo[2,3-b]pyridin-4-yl]-3′,6′-dihydro-2′H-[3,4′]bipyridinyl-1′-yl}-ethanone]
The pIC50 of the first is 0.31 log units lower: 6.88 for the first, 7.19 for the second. The second is the more potent here.

Compared with `Cc1cccc(-c2nc(-c3cncc(-c4nnn[nH]4)c3)c3cc[nH]c3n2)n1` [Example 104, 2-(6-Methyl-pyridin-2-yl)-4-[5-(1H-tetrazol-5-yl)-pyridin-3-yl]-7H-pyrrolo[2,3-d]pyrimidine], `Cc1cccc(-c2nc(-c3cncc(-c4cnn(C)c4)c3)c3cc[nH]c3n2)n1` [Example 117, 4-[5-(1-Methyl-1H-pyrazol-4-yl)-pyridin-3-yl]-2-(6-methyl-pyridin-2-yl)-7H-pyrrolo[2,3-d]pyrimidine] is 1.83 log units higher in pIC50: 5.99 for the first, 7.82 for the second. The second is the more potent here.

First: CSc1cncc(-c2cc(-c3cccc(C)n3)nc3[nH]ccc23)c1 [Example 105, 6-(6-Methyl-pyridin-2-yl)-4-(5-methylsulfanyl-pyridin-3-yl)-1H-pyrrolo[2,3-b]pyridine]
Second: Cc1cccc(-c2cc(-c3cncc(N)c3)c3cc[nH]c3n2)n1 [Example 106, 5-[6-(6-Methyl-pyridin-2-yl)-1H-pyrrolo[2,3-b]pyridin-4-yl]-pyridin-3-ylamine]
The pIC50 of the first is 0.24 log units lower: 6.94 for the first, 7.18 for the second. The second is the more potent here.

First: Cc1cccc(-c2cc(-c3cncc(O)c3)c3cc[nH]c3n2)n1 [Example 107, 5-[6-(6-Methyl-pyridin-2-yl)-1H-pyrrolo[2,3-b]pyridin-4-yl]-pyridin-3-ol]
Second: Cc1cccc(-c2cc(-c3cncc(CO)c3)c3cc[nH]c3n2)n1 [Example 109, {5-[6-(6-Methyl-pyridin-2-yl)-1H-pyrrolo[2,3-b]pyridin-4-yl]-pyridin-3-yl}-methanol]
The pIC50 of the first is 1.28 log units higher: 7.37 for the first, 6.09 for the second. The first is the more potent here.

First: Cc1cccc(-c2cc(-c3cncc(-c4ccc(CN5CC[C@H](N(C)C)C5)cc4)c3)c3cc[nH]c3n2)n1 [Example 110, Dimethyl-[(S)-1-(4-{5-[6-(6-methyl-pyridin-2-yl)-1H-pyrrolo[2,3-b]pyridin-4-yl]-pyridin-3-yl}-benzyl)-pyrrolidin-3-yl]-amine]
Second: Cc1cccc(-c2cc(-c3cncc(-c4ccc(C(C)(C)N)cc4)c3)c3cc[nH]c3n2)n1 [Example 114, 1-Methyl-1-(4-{5-[6-(6-methyl-pyridin-2-yl)-1H-pyrrolo[2,3-b]pyridin-4-yl]-pyridin-3-yl}-phenyl)-ethylamine]
The pIC50 of the first is 0.64 log units lower: 7.70 for the first, 8.34 for the second.

Compared with `Cc1cccc(-c2cc(-c3cncc(C4=CCNCC4)c3)c3cc[nH]c3n2)n1` [Example 111, 5-[6-(6-Methyl-pyridin-2-yl)-1H-pyrrolo[2,3-b]pyridin-4-yl]-1′,2′,3′,6′-tetrahydro-[3,4′]bipyridinyl], `Cc1cccc(-c2cc(-c3cncc(-c4cnn(C)c4)c3)c3cc[nH]c3n2)n1` [Example 123, 4-[5-(1-Methyl-1H-pyrazol-4-yl)-pyridin-3-yl]-6-(6-methyl-pyridin-2-yl)-1H-pyrrolo[2,3-b]pyridine] is 0.98 log units higher in pIC50: 7.38 for the first, 8.36 for the second.

Going from `Cc1cccc(-c2cc(-c3cncc(-c4ccc(C(C)N)cc4)c3)c3cc[nH]c3n2)n1` (centres unmarked) [Example 112, 1-(4-{5-[6-(6-Methyl-pyridin-2-yl)-1H-pyrrolo[2,3-b]pyridin-4-yl]-pyridin-3-yl}-phenyl)-ethylamine] to `Cc1cccc(-c2cc(-c3cncc(-c4ccc([C@H](C)N)cc4)c3)c3cc[nH]c3n2)n1` [Example 127, (S)-1-(4-{5-[6-(6-Methyl-pyridin-2-yl)-1H-pyrrolo[2,3-b]pyridin-4-yl]-pyridin-3-yl}-phenyl)-ethylamine], the pIC50 falls from 8.15 to 7.77 (0.38 log units).

Compared with `Cc1cccc(-c2cc(-c3cncc(-c4cccc(C(C)(C)N)c4)c3)c3cc[nH]c3n2)n1` [Example 113, 1-Methyl-1-(3-{5-[6-(6-methyl-pyridin-2-yl)-1H-pyrrolo[2,3-b]pyridin-4-yl]-pyridin-3-yl}-phenyl)-ethylamine], `Cc1cccc(-c2cc(-c3cncc(-c4ccc([C@@H](C)N)cc4)c3)c3cc[nH]c3n2)n1` [Example 128, (R)-1-(4-{5-[6-(6-Methyl-pyridin-2-yl)-1H-pyrrolo[2,3-b]pyridin-4-yl]-pyridin-3-yl}-phenyl)-ethylamine] is 0.32 log units higher in pIC50: 7.57 for the first, 7.89 for the second.

Compared with `Cc1cccc(-c2nc(-c3cncc(-c4ccc5c(c4)CCNC5)c3)c3cc[nH]c3n2)n1` [Example 115, 6-{5-[2-(6-Methyl-pyridin-2-yl)-7H-pyrrolo[2,3-d]pyrimidin-4-yl]-pyridin-3-yl}-1,2,3,4-tetrahydro-isoquinoline], `Cc1cccc(-c2nc(-c3cncc(-c4ccc5c(c4)CNCC5)c3)c3cc[nH]c3n2)n1` [Example 118, 7-{5-[2-(6-Methyl-pyridin-2-yl)-7H-pyrrolo[2,3-d]pyrimidin-4-yl]-pyridin-3-yl}-1,2,3,4-tetrahydro-isoquinoline] is 2.47 log units higher in pIC50: 5.94 for the first, 8.41 for the second.

First: C#Cc1cncc(-c2nc(-c3cccc(C)n3)nc3[nH]ccc23)c1 [Example 119, 4-(5-Ethynyl-pyridin-3-yl)-2-(6-methyl-pyridin-2-yl)-7H-pyrrolo[2,3-d]pyrimidine]
Second: Cc1cccc(-c2nc(-c3cncc(C#CCN4CCN(C)CC4)c3)c3cc[nH]c3n2)n1 [Example 122, 4-{5-[3-(4-methyl-piperazin-1-yl)-prop-1-ynyl]-pyridin-3-yl}-2-(6-methyl-pyridin-2-yl)-7H-pyrrolo[2,3-d]pyrimidine]
The pIC50 of the first is 0.82 log units lower: 6.53 for the first, 7.35 for the second.

`Cc1cccc(-c2nc(-c3cncc(-c4ccc(CN(C)C)cn4)c3)c3cc[nH]c3n2)n1` [Example 124, Dimethyl-{5′-[2-(6-methyl-pyridin-2-yl)-7H-pyrrolo[2,3-d]pyrimidin-4-yl]-[2,3′]bipyridinyl-5-ylmethyl}-amine] and `Cc1cccc(-c2cc(-c3cncc(-c4ccc(CN(C)C)cn4)c3)c3cc[nH]c3n2)n1` [Example 125, Dimethyl-{5′-[6-(6-methyl-pyridin-2-yl)-1H-pyrrolo[2,3-b]pyridin-4-yl]-[2,3′]-5-ylmethyl}-amine] are within 0.2 log units of each other in pIC50: 7.96 for the first, 8.10 for the second.

First: Cc1cccc(-c2nc(-c3cncc4c3CCCO4)c3cc[nH]c3n2)n1 [Example 126, 5-[2-(6-Methyl-pyridin-2-yl)-7H-pyrrolo[2,3-d]pyrimidin-4-yl]-3,4-dihydro-2H-pyrano[2,3-c]pyridine]
Second: Cc1cccc(-c2cc(-c3cncc(C#CCN4CCN(C)CC4)c3)c3cc[nH]c3n2)n1 [Example 129, 4-{5-[3-(4-Methyl-piperazin-1-yl)-prop-1-ynyl]-pyridin-3-yl}-6-(6-methyl-pyridin-2-yl)-1H-pyrrolo[2,3-b]pyridine]
The pIC50 of the first is 1.16 log units lower: 6.64 for the first, 7.80 for the second. The second is the more potent here.

`Cc1cccc(-c2cc(-c3cncc(-c4cccc(CNCC(=O)O)c4)c3)c3cc[nH]c3n2)n1` [Example 130, (3-{5-[6-(6-Methyl-pyridin-2-yl)-1H-pyrrolo[2,3-b]pyridin-4-yl]-pyridin-3-yl}-benzylamino)-acetic acid] and `COC(=O)CNCc1cccc(-c2cncc(-c3cc(-c4cccc(C)n4)nc4[nH]ccc34)c2)c1` [Example 131, (3-{5-[6-(6-Methyl-pyridin-2-yl)-1H-pyrrolo[2,3-b]pyridin-4-yl]-pyridin-3-yl}-benzylamino)-acetic acid methyl ester] are within 0.2 log units of each other in pIC50: 7.96 for the first, 8.00 for the second.
